{
  "source": "patent US9155784B2",
  "about": "“Anti-TNF-α therapy for the mucopolysaccharidoses and other lysosomal disorders” (Icahn School of Medicine at Mount Sinai, priority 2011, dated 2015)",
  "format_in_all_cases": "in vivo, rat",
  "key": {"[1]": {"tested_on": "TNF-α and RANKL", "assay": "Serum immunoassays of TNF-α and RANKL in treated MPS VI rats", "details": "MPS VI rats treated 8 months i.v., end of study (37 weeks), vs untreated MPS VI", "method": "Naglazyme® (recombinant human N-acetylgalactosamine-4-sulfatase) was obtained from the BioMarin Pharmaceutical Inc., and CNTO1081 was from Centocor Ortho Biotech Inc. Twenty one-day-old (pre-symptomatic) MPS VI rats were divided into two groups (n=8/group), and subjected to either ERT or combined ERT/anti-TNF-α therapy. Animals receiving ERT alone were injected i.v. (tail vein) weekly with 1 mg/kg of Naglazyme®. Those receiving combined therapy also were injected i.v. with 3 mg/kg of CNTO10181 twice per week (every third day). Treatment was carried out for a total of 32 weeks. Serum was collected every 2 weeks for TNF-α and RANKL analysis (see infra). For each group, the treated animals were sacrificed 2 weeks after the last injection (37 weeks of age). Age-matched normal and untreated MPS VI rats were used as controls throughout the study.\nSerum TNF-α and RANKL in age-matched normal, untreated and treated MPS VI rats were assessed by immunoassays using rat ultrasensitive Biosource Elisa kits (Invitrogen and ALPCO Diagnostics) according to the manufacturers' protocols. All assays were performed in triplicate.\nTwenty one-day-old MPS VI rats were treated by either ERT (1 mg/kg once per week), or by a combined protocol of ERT and anti-TNF-α therapy (3 mg/kg, twice per week). Both were administered intravenously (tail vein). […]"}, "[2]": {"tested_on": "MPS VI rats", "assay": "Accelerating rotarod (locomotor function), MPS VI rats, ERT and combined treatment", "details": "10 RPM, maximum time 180 seconds; untreated MPS VI mean 70 seconds", "text": "Age-matched 37-week-old normal and untreated MPS VI and treated MPS VI rats were placed on an accelerating Rotarod series 8 (IITC Life Science) for evaluation as described previously (Cotugno et al., “Different Serum Enzyme Levels are Required to Rescue the Various Systemic Features of the Mucopolysaccharidoses,” Hum. Gene Ther. 21:555-69 (2010), which is hereby incorporated by reference in its entirety). Animals were primed on the rod for two consecutive days prior to the actual recording. The rotarod was set at increasing speeds from 10 to 30 rpm over 3 minutes, and an average of the latency to fall off from the rod was recorded. Results were analyzed by one-way analysis of variance (ANOVA) with the variable group."}, "[3]": {"tested_on": "MPS VI rats", "assay": "Gait (motility) analysis from paw prints, MPS VI rats", "method": "The fore and hind paws of treated and control animals were stained with two different colors using non-toxic dye. The rats were trained to walk through a tunnel for two consecutive days, leaving their paw prints on blotting paper. On the third day several parameters were measured; distance between the left and right front paws in the longitudinal direction, the angle that was formed, and the distance between the front and hind right paws. For statistical analysis, group differences were assessed using multivariate analyses of variance (MANOVAs), followed by post hoc Bonferroni adjustments for all time points tested."}, "[4]": {"tested_on": "MPS VI rats", "assay": "Femora and tibia length by microCT / caliper, MPS VI rats", "details": "37 weeks of age, vs untreated MPS VI", "method": "Three-dimensional images of the 37-week-old femora from age-matched normal, untreated and treated MPS VI rats were obtained using the eXplore Locus SP PreClinical Specimen microCT system (GE Healthcare; London, Ontario, Canada). Scans were performed at a voxel size of 14.4 μm. The scan protocol consisted of 3600 image acquisitions over a five hour scan (acquisition parameters: 80 kVp, 80 uA, 3 second exposure time [˜690], 0.010″ aluminum beam filter). A calibration phantom containing air, water, and hydroxyapatite (SB3: Gamex RMI, Middleton, Wis., USA) was included in all scans to adjust for the variability in X-ray attenuation inherent to independent scan sessions.\nLimb and trachea measurements were taken at the end of the study (37 weeks of age). The length of each femur was measured from the microCT images using the Microview software. The greater trochanter was used as the proximal margin of the femur, whereas the extent of the distal condyles was considered the distal margin. Thus, the length of each femur was computed roughly along the vertical axis of the bone. For validation, the physical femora and tibia lengths, as well as the width of the tracheas, was measured with a digital caliper. The mean of the two treatment groups (ERT and combined ERT/CNTO1081) were compared using standard student t test analysis."}, "[5]": {"tested_on": "articular chondrocytes", "assay": "Immunoblot of articular chondrocytes from treated MPS VI rats", "details": "western blot, vs untreated MPS VI", "text": "Tracheas, femora, and tibias were collected from the control and treated MPS VI rats, and placed in either phosphate buffered saline for the isolation of fibroblast-like synoviocytes (FLS) and articular chondrocytes, or fixed in neutral buffered 10% formalin (Sigma Chemical) for histology, microCT analysis, and immunohistochemistry (see infra). The fixed bones were decalcified in 8% formic acid (Sigma Chemical) for 5 days, paraffin embedded, and sectioned (5 μm) for subsequent staining Primary FLS and articular chondrocyte cultures were established as previously described (Simonaro et al., “Joint and Bone Disease in Mucopolysaccharidosis VI and VII: Identification of New Therapeutic Targets and Biomarkers Using Animal Models,” Pediatr. Res. 57:701-707 (2005); Simonaro et al., “Mechanism of Glycosaminoglycan-Mediated Bone & Joint Disease: Implications for the Mucopolysaccharidoses & Other Connective Tissue Diseases,” Amer. J. Path. 172:112-122 (2008), both of which are hereby incorporated by reference in their entirety), and expression of inflammatory and apoptosis markers were assessed by western blotting.\nArticular chondrocytes from 37-week-old normal, untreated and treated MPS VI rats were collected using sequential enzyme digestion of cartilage, pelleted and lysed for immunoblot analysis as previously described (Simonaro et al., “Mechanism of Glycosaminoglycan-Mediated Bone & Joint Disease: Implications for the Mucopolysaccharidoses & Other Connective Tissue Diseases,” Amer. J. Path. 172:112-122 (2008), which is hereby incorporated by reference in its entirety). The membranes were incubated with rabbit polyclonal anti-collagen type IIA1 (sc-8784-R, Santa Cruz Biotechnology), rabbit polyclonal anti-collagen type X (AB58632, Abcam), rabbit polyclonal anti-ADAMTS5 (sc-28887, Santa Cruz Biotechnology), rabbit polyclonal anti-PARP (sc-7150, Santa Cruz Biotechnology), and rabbit polyclonal anti-GAPDH (sc-25778, Santa Cruz Biotechnology), as a loading control. The bound antibodies were recognized by secondary antibodies conjugated to HRP (NA934V), GE Healthcare). […]"}},
  "data": [
    {"substance": "recombinant human N-acetylgalactosamine-4-sulfatase [ERT]", "values": [
      {"measurement": "serum RANKL level", "setting": "[1]", "result": "significantly reduced"},
      {"measurement": "serum TNF-α level", "setting": "[1]", "result": "significantly reduced"},
      {"measurement": "time on the rotating bar", "setting": "[2]", "result": 180, "unit": "s"},
      {"measurement": "distance for the front paw per step", "setting": "[3]; untreated MPS VI 2.8 cm", "result": 4.2, "unit": "cm"},
      {"measurement": "distance the animals moved their rear paws", "setting": "[3]; untreated MPS VI 4.9 cm", "result": "not changed"},
      {"measurement": "angle of the hind paw movement", "setting": "[3]; untreated MPS VI 60°", "result": 45, "unit": "°"},
      {"measurement": "increase in femora length", "setting": "[4]", "result": "No improvements were observed"},
      {"measurement": "increase in tibia length", "setting": "[4]", "result": "No improvement was observed"},
      {"measurement": "ADAMTS5 expression in articular chondrocytes", "setting": "[5]", "result": "reduced"},
      {"measurement": "PARP (apoptosis marker) expression in articular chondrocytes", "setting": "[5]", "result": "only reduced by the combined treatment protocol"},
      {"measurement": "collagen X expression in articular chondrocytes", "setting": "[5]", "result": "increased"}
    ]}
  ]
}
